Test results: PubChem BioAssay AID2060509 (Molecular Pharmacology Branch, DTP, NCI, 2025)
“And” between values parts separate entries of the source, which are not always exact repeats. Equal entries are not always repeated.

Tested on: 485176-168-R4-J1-PDC spheroids with HUVEC/MSC, viability
Test: Anticancer human tumor 485176-168-R4-J1-PDC patient-derived pancreatic adenocarcinoma cell line growth inhibition [GQUAD]
Settings: for viability, T/C: stronger effect = lower value
Source text: DNA G-quadruplex Stabilizer Agents in Combinations in Complex Spheroids
A high-throughput screen of multi-cell type tumor spheroids was designed to identify active combinations of DNA G-quadruplex stabilizer agents and targeted small molecules. Complex spheroids include a stromal component modeled by human endothelial cells (HUVEC) and fibroblasts modeled by human mesenchymal stem cells (MSCs). The concentration ranges selected for each drug and investigational agent were based upon clinically achievable concentrations if the clinical Cmax of the agent was known.
Compounds. The drugs and investigational agents: pidnarulex (CX-5461; NSC782164), APTO-253 (NSC789042), BRACO-19 (NSC847499), peposertib (NSC802822), ceralasertib (NSC780249), elimusertib (NSC800525), camonsertib (NSC841442), AZD-1390 (NSC803789), olaparib (NSC753686), talazoparib (NSC767125), ART-558 (NSC835418), sotorasib (NSC818433), MRTX-1133 (NSC836407), SN-38 (NSC673596), topotecan (NSC609699), etoposide (NSC141540), doxorubicin (NSC123127), gemcitabine (NSC613327), 5-fluorouracil (NSC19893), paclitaxel (NSC125973), vemurafenib (NSC761431), panobinostat (NSC761190), R-306465 (JNJ-16241199; NSC773264), adavosertib (NSC754352), TP-3654 (NSC805149), carboplatin (NSC241240), KSQ-4279 (NSC840948), and staurosporine (NSC755774) were obtained from the National Cancer Institute (NCI) Developmental Therapeutics Program Chemical Repository (34). The FDA-approved anticancer drug set is available from the NCI Developmental Therapeutics Program. […] The stock solutions were prepared in dimethyl sulfoxide (DMSO, Sigma-Aldrich, St. Louis, MO, cat. D2650) at 800-fold the tested concentration and stored at -70 degrees C prior to their use. All drugs and investigational agents were tested over a range starting from a high concentration at or near the clinical Cmax and decreasing in half-log increments. If the clinical Cmax for an agent had not been determined, the highest concentration tested was 10 microM.
2.3 Cell Culture. All cells were maintained in an incubator at 37 degrees C and 5% CO2 with 95% humidity. The PDC lines were cultured according to standard operating procedures established by the NCI PDMR. All PDCs were thawed and cultured in Matrigel-coated flasks prepared with a working solution of 1X Ham's F-12 nutrient mix, without supplementation (Invitrogen, cat. 11765054), 100 U/mL penicillin-streptomycin (Invitrogen, cat. 15140122), and 2.5% Matrigel (Corning Inc., cat. 354248) for the first three passages. The 857933-349-R-J2-PDC line was cultured in 6C/Colon 1B media, which includes advanced DMEM/F-12 (Thermo Fisher Scientific, cat. 12634028), 10 mM HEPES (Thermo Fisher Scientific, cat. 15630080), 1X GlutaMAX supplement (Thermo Fisher Scientific, cat. 35050061), 0.1 mg/mL primocin (InvivoGen, cat. ant-pm-2), 10% defined fetal bovine serum, heat inactivated (HyClone Laboratories Inc., cat. SH30070.03HI), 50% L-WRN conditioned media (ATCC, cat. CRL-3276), 1.25 mM N-Acetyl-L-cysteine (Sigma-Aldrich, cat. A9165), 10 mM nicotinamide (Sigma-Aldrich, cat. N0636), 1X B-27 supplement (Thermo Fisher Scientific, cat. 17504044), 1X N-2 supplement (Thermo Fisher Scientific, cat. 17502048), 10 microM Y-27632 dihydrochloride (Tocris Bioscience, cat. 1254), and 50 ng/mL human EGF recombinant protein (Thermo Fisher Scientific, cat. PHG0311). The 485176-168-R4-J1-PDC line was cultured in Panc media, which includes all 6C/Colon 1B media components plus 100 ng/mL human FGF-10 (Thermo Fisher Scientific, cat. 100-26), 500 nM SB-431542 (Selleckchem, cat. S1067), and gastrin (Tocris, cat. 3006).
[…]
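Further: spheroids exposed to compounds for seven days before readout.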
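Wherever viability, T/C is given: percent viability relative to DMSO vehicle control wells as 100%.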

CC(C)(O)C1CCC(Nc2ccc3ncc(-c4cccc(C(F)(F)F)c4)n3n2)CC1 (configuration not stated)
viability, T/C (compound 0.0316 µM): 95.2% and 95.5% and 94.6%
viability, T/C (compound 0.1 µM): 110% and 90.6% and 87.2%
viability, T/C (compound 0.316 µM): 83.9% and 93.9% and 92.1%
viability, T/C (compound 1 µM): 84.3% and 91.6% and 77.9%
viability, T/C (compound 3.16 µM): 53.8% and 62.9% and 60.7%
viability, T/C (compound 10 µM): 57.8% and 57.9% and 56.4%
IC50 (curve of compound): > 10000 nM

O=C(c1cc(Cc2n[nH]c(=O)c3ccccc23)ccc1F)N1CCN(C(=O)C2CC2)CC1
viability, T/C (compound 0.0316 µM): 94.9% and 101% and 98%
viability, T/C (compound 0.1 µM): 100% and 97.5% and 90.3%
viability, T/C (compound 0.316 µM): 84.3% and 99.6% and 85.8%
viability, T/C (compound 1 µM): 89.3% and 98.4% and 81.9%
viability, T/C (compound 3.16 µM): 85.7% and 102% and 88.1%
viability, T/C (compound 10 µM): 80% and 77.6% and 68.8%
IC50 (curve of compound): > 10000 nM

CC1COCCN1c1cc(C2(S(C)(=N)=O)CC2)nc(-c2ccnc3[nH]ccc23)n1 (configuration not stated)
viability, T/C (compound 0.0316 µM): 91.4% and 102% and 101%
viability, T/C (compound 0.1 µM): 98.7% and 102% and 97.1%
viability, T/C (compound 0.316 µM): 93.1% and 96.5% and 101%
viability, T/C (compound 1 µM): 56% and 70.9% and 59.4%
viability, T/C (compound 3.16 µM): 36.2% and 34.4% and 72.4%
viability, T/C (compound 10 µM): 14.5% and 16.4% and 12.8%
IC50 (curve of compound): 1550 nM and 1930 nM and 3980 nM

Nc1ccn(C2OC(CO)C(O)C2(F)F)c(=O)n1 (configuration not stated)
viability, T/C (compound 0.0316 µM): 76.8% and 70.1% and 75.6%
viability, T/C (compound 0.1 µM): 16.7% and 16.1% and 15.4%
viability, T/C (compound 0.316 µM): 11.3% and 7.32% and 9.64%
viability, T/C (compound 1 µM): 10.3% and 9.3% and 8.42%
viability, T/C (compound 3.16 µM): 10.7% and 12.2% and 11.5%
viability, T/C (compound 10 µM): 13% and 12.5% and 11.1%
IC50 (curve of compound): 52.9 nM and 48.4 nM and 51.6 nM

Cc1[nH]c2ccccc2c1CCNCc1ccc(/C=C/C(=O)NO)cc1
viability, T/C (compound 0.000999 µM): 113% and 108% and 97.3%
viability, T/C (compound 0.00316 µM): 115% and 82.3% and 88%
viability, T/C (compound 0.00999 µM): 94.8% and 93.9% and 87%
viability, T/C (compound 0.0316 µM): 81.7% and 86% and 77.5%
viability, T/C (compound 0.0999 µM): 89.2% and 50.2% and 66%
viability, T/C (compound 0.316 µM): 14.2% and 10.4% and 16.8%
IC50 (curve of compound): 168 nM and 102 nM and 138 nM

O=c1[nH]cc(F)c(=O)[nH]1 + Cc1cnc(CNC(=O)c2c(=O)c3ccc(N4CCCN(C)CC4)nc3n3c2sc2ccccc23)cn1
IC50 (curve of first compound, second compound 0.0316 µM): 847 nM
IC50 (curve of first compound, second compound 0.1 µM): 272 nM
IC50 (curve of first compound, second compound 0.316 µM): 248 nM
IC50 (curve of first compound, second compound 1 µM): 202 nM
IC50 (curve of first compound, second compound 3.16 µM): < 31.6 nM
IC50 (curve of first compound, second compound 10 µM): < 31.6 nM
viability, T/C (second compound 0.0316 µM, first compound 0.0316 µM): 84.7%
viability, T/C (second compound 0.0316 µM, first compound 0.1 µM): 77.4%
viability, T/C (second compound 0.0316 µM, first compound 0.316 µM): 66.1%
viability, T/C (second compound 0.0316 µM, first compound 1 µM): 45.9%
viability, T/C (second compound 0.0316 µM, first compound 3.16 µM): 43.5%
viability, T/C (second compound 0.0316 µM, first compound 10 µM): 43.6%
viability, T/C (second compound 0.1 µM, first compound 0.0316 µM): 63.3%
viability, T/C (second compound 0.1 µM, first compound 0.1 µM): 73.5%
viability, T/C (second compound 0.1 µM, first compound 0.316 µM): 47.2%
viability, T/C (second compound 0.1 µM, first compound 1 µM): 47.1%
viability, T/C (second compound 0.1 µM, first compound 3.16 µM): 46.4%
viability, T/C (second compound 0.1 µM, first compound 10 µM): 43.6%
viability, T/C (second compound 0.316 µM, first compound 0.0316 µM): 53.8%
viability, T/C (second compound 0.316 µM, first compound 0.1 µM): 66.1%
viability, T/C (second compound 0.316 µM, first compound 0.316 µM): 47.4%
viability, T/C (second compound 0.316 µM, first compound 1 µM): 45.3%
viability, T/C (second compound 0.316 µM, first compound 3.16 µM): 35.1%
viability, T/C (second compound 0.316 µM, first compound 10 µM): 45.7%
viability, T/C (second compound 1 µM, first compound 0.0316 µM): 50.5%
viability, T/C (second compound 1 µM, first compound 0.1 µM): 54.7%
viability, T/C (second compound 1 µM, first compound 0.316 µM): 48.3%
viability, T/C (second compound 1 µM, first compound 1 µM): 38.2%
viability, T/C (second compound 1 µM, first compound 3.16 µM): 36.4%
viability, T/C (second compound 1 µM, first compound 10 µM): 41%
viability, T/C (second compound 3.16 µM, first compound 0.0316 µM): 40.6%
viability, T/C (second compound 3.16 µM, first compound 0.1 µM): 44.1%
viability, T/C (second compound 3.16 µM, first compound 0.316 µM): 37.2%
viability, T/C (second compound 3.16 µM, first compound 1 µM): 32.8%
viability, T/C (second compound 3.16 µM, first compound 3.16 µM): 34.5%
viability, T/C (second compound 3.16 µM, first compound 10 µM): 31.3%
viability, T/C (second compound 10 µM, first compound 0.0316 µM): 41.5%
viability, T/C (second compound 10 µM, first compound 0.1 µM): 45%
viability, T/C (second compound 10 µM, first compound 0.316 µM): 33.5%
viability, T/C (second compound 10 µM, first compound 1 µM): 30.3%
viability, T/C (second compound 10 µM, first compound 3.16 µM): 34.4%
viability, T/C (second compound 10 µM, first compound 10 µM): 34.3%
